Data as given in article PMC11477289, “Low-Basicity 5-HT6 Receptor Ligands from the Group of Cyclic Arylguanidine Derivatives and Their Antiproliferative Activity Evaluation” (International Journal of Molecular Sciences, 2024).
Read-outs that look alike come from different tables or passages of the source.

How the values were obtained:
[1] = biological target: human serum albumin (HSA) (Homo sapiens, UniProt P02768); experiment: Binding to HSA, Chiralpak HSA column
Source text: We began with an assay for lipophilicity, affinity for phospholipids (for 40 compounds), and drug binding to human serum albumin (HSA) (for 20 compounds), using chromatographic protocols developed by Valko [46] and implemented in our laboratory. Compounds with the highest affinity for 5-HT6R and those showing the most promising ADMET parameters, including the possibility of BBB penetration, DDI, and lipophilicity, determined in silico in SwissADME [45], were selected for testing. These methods allowed the determination of chromatographic hydrophobicity indices (CHIs), binding to HSA (%HSA), and phospholipids (CHIIAM) using a single-gradient elution experiment and comparison to reference substances.
The use of columns modified with plasma proteins, such as HSA, also allows for the estimation of binding to HSA, which is the most dominant plasma protein (PP). Binding to PP affects drug pharmacokinetics, such as distribution, half-life, and clearance.
The mobile phase flow rate was 1.5 mL/min, and the column was maintained at 30 °C. • Chiralpak® HSA (50 mm × 4 mm; 5 µm with safety guard column; Daicel Chiral Technologies, West Chester, PA, USA), mobile phase A: 50 mM ammonium acetate, mobile phase B: HPLC-grade isopropanol (VWR International, Leuven, Belgium). For the first 15 min, the linear gradient from 0 to 20% isopropanol was applied and then held at 20% isopropanol for 12 min. In the last 5 min of the sequence, the mobile phase mixture received a pure ammonium acetate solution. The column temperature was held at 30 °C, whereas the flow rate was 0.9 mL/min.
The reference substances for the calibration of HSA, C18, and IAM columns were purchased, respectively: acetanilide, butyrophenone, diclofenac, and octanonophenone (Alfa Aesar, Haverhill, MA, USA); acetophenone, benzimidazole, colchicine, indole, indometacin, paracetamol, and theophylline (Sigma-Aldrich, Steinheim, Germany); nicardipine and nizatidine (Cayman Chemical, Ann Arbor, MI, USA); carbamazepine, heptanophenone, hexanophenone, propiophenone, and valerophenone (Acros Organic, Pittsburg, PA, USA). Before chromatographic experiments, solutes were dissolved in dimethyl sulfoxide (Avantor Performance Materials Poland S.A., Gliwice, Poland) to obtain a 200 µg/mL concentration. The detection was performed in the UV region at the wavelength from 190 nm to 300 nm. The injected volume was 5 μL, and each compound was analyzed in triplicate.

[2] = Chromatographic hydrophobicity index on C18 column (lipophilicity); assay type: physicochemical
Source text: (§1) We began with an assay for lipophilicity, affinity for phospholipids (for 40 compounds), and drug binding to human serum albumin (HSA) (for 20 compounds), using chromatographic protocols developed by Valko [46] and implemented in our laboratory [47]. […] These methods allowed the determination of chromatographic hydrophobicity indices (CHIs), binding to HSA (%HSA), and phospholipids (CHIIAM) using a single-gradient elution experiment and comparison to reference substances.

[3] = Affinity to phospholipids, IAM column (CHI IAM); assay type: physicochemical; settings: IAM.PC.DD2 column, pH 7.4
Source text: as §1

[4] = system: 1321N1 astrocytoma cell line; experiment: Antiproliferative activity (MTS), 1321N1; settings: Homo sapiens, 1321-N1, 72 h, read-out: IC50 Values 1321N1
U87MG glioblastoma cells = experiment: Antiproliferative activity (MTS), U87MG; settings: Homo sapiens, U-87 MG, 72 h, read-out: IC50 Values U87MG
human 5-HT6 = biological target: T1, human 5-HT6 (Homo sapiens, UniProt P50406); experiment: [3H]-LSD radioligand binding assay, 5-HT6R; settings: HEK293 expressing human 5-HT6R, read-out: 5-HT6 Ki
T1 construct: expressed in transfected cells
T1 sequence (P50406 whole entry): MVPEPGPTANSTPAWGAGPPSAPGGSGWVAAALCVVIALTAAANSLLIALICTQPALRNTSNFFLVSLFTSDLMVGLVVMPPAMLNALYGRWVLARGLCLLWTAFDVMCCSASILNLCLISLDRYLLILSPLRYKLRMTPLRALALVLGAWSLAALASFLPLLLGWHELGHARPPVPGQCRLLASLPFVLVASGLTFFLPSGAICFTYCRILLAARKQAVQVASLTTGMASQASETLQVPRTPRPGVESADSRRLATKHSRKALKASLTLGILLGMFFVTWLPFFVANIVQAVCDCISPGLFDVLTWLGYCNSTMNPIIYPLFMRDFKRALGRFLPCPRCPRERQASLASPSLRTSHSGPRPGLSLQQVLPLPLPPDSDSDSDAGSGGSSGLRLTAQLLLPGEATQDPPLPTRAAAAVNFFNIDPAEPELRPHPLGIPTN
Protocol: Next, the ligands’ affinity for the 5-HT6 receptors was evaluated in the [^3H]-LSD radioligand binding assay. Experiments were performed in a stable HEK293 cell line expressing the human 5-HT6R.
The pellets were stored at −80 °C.

Sequence of human serum albumin (HSA) (P02768 25-609): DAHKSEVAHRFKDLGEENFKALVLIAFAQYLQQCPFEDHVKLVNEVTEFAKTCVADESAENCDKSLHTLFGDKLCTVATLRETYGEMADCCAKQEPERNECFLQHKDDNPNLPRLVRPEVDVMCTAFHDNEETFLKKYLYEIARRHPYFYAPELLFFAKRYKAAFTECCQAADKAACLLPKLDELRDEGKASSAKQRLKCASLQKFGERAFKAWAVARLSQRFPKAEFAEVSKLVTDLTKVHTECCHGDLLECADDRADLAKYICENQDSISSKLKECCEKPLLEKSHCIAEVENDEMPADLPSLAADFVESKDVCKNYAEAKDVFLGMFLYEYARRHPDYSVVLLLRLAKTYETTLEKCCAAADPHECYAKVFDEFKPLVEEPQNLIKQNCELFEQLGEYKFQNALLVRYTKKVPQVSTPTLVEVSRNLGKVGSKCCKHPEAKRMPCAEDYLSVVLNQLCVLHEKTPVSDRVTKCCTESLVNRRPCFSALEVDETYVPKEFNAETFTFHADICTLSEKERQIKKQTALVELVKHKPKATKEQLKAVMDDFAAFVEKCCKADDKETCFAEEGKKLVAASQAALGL

CN(C)CCC=C1c2ccccc2CCc2ccccc21 [Amitriptyline, reference compound]
%HSA [1]: 88.9% | logKHSA ([1]; Chiralpak HSA column): 0.87 | CHI C18 pH 2.6 [2]: 65.9 | CHI C18 pH 7.4 [2]: 112.0 | CHI C18 pH 10.5 [2]: 116.3 | CHI IAM [3]: 47.0

COc1cccc2c1C(=O)c1c(O)c3c(c(O)c1C2=O)C[C@@](O)(C(=O)CO)C[C@@H]3O[C@H]1C[C@H](N)[C@H](O)[C@H](C)O1 [Doxorubicin, reference compound]
IC50 [4]: 1.1 µM

CN1CCN2c3ccccc3Cc3ccccc3C2C1 (stereo not drawn) [Mianserin, reference compound]
%HSA ([1]; Chiralpak HSA column): 90.9% | logKHSA ([1]; Chiralpak HSA column): 0.95 | CHI C18 pH 2.6 [2]: 59.4 | CHI C18 pH 7.4 [2]: 108.6 | CHI C18 pH 10.5 [2]: 98.7 | CHI IAM [3]: 44.2

CN1CCN2c3ncccc3Cc3ccccc3C2C1 (stereo not drawn) [Mirtazapine, reference compound]
%HSA ([1]; Chiralpak HSA column): 76.9% | logKHSA ([1]; Chiralpak HSA column): 0.51 | CHI C18 pH 2.6 [2]: 46.7 | CHI C18 pH 7.4 [2]: 101.2 | CHI C18 pH 10.5 [2]: 79.0 | CHI IAM [3]: 39.3

Nc1nc2ccccc2n1S(=O)(=O)c1cccc2cccnc12 [PR 9, 1-(quinoline-8-sulfonyl)-1H-1,3-benzodiazol-2-amine]
%HSA ([1]; Chiralpak HSA column): 94.3% | logKHSA ([1]; Chiralpak HSA column): 1.1 | CHI C18 pH 2.6 [2]: 75.1 | CHI C18 pH 7.4 [2]: 79.2 | CHI C18 pH 10.5 [2]: 79.6 | IC50 (U87MG glioblastoma cells): > 25 µM | melting point: 254 to 256 °C | CHI IAM [3]: 35.7 | Ki (human 5-HT6): 318 ± 18 nM | IC50 [4]: > 25 µM

O=S(=O)(NC1=Nc2ccccc2CN1)c1ccc(OC(F)(F)F)cc1 [PR 17, N -(3,4-dihydroquinazolin-2-yl)-4-(trifluoromethoxy)benzene-1-sulfonamide]
%HSA ([1]; Chiralpak HSA column): 93.7% | logKHSA ([1]; Chiralpak HSA column): 1.1 | CHI C18 pH 2.6 [2]: 94.2 | CHI C18 pH 7.4 [2]: 93.2 | CHI C18 pH 10.5 [2]: 95.0 | IC50 (U87MG glioblastoma cells): > 25 µM | melting point: 161 to 163 °C | CHI IAM [3]: 38.7 | Ki (human 5-HT6): 9850 ± 2460 nM | IC50 [4]: > 25 µM

O=S(=O)(NC1=Nc2ccccc2CN1)c1c(Cl)ccc2ccccc12 [PR 41, 2-chloro-N-(3,4-dihydroquinazolin-2-yl)naphthalene-1-sulfonamide]
%HSA ([1]; Chiralpak HSA column): 97.1% | logKHSA ([1]; Chiralpak HSA column): 1.4 | CHI C18 pH 2.6 [2]: 95.8 | CHI C18 pH 7.4 [2]: 93.1 | CHI C18 pH 10.5 [2]: 96.2 | IC50 (U87MG glioblastoma cells): > 25 µM | melting point: 241 to 244 °C | CHI IAM [3]: 42.9 | Ki (human 5-HT6): 210 ± 48 nM | IC50 [4]: > 25 µM

O=S(=O)(NC1=Nc2ccccc2CN1)c1ccc(Cl)c2ccccc12 [PR 42, 4-chloro-N-(3,4-dihydroquinazolin-2-yl)naphthalene-1-sulfonamide]
%HSA ([1]; Chiralpak HSA column): 97.9% | logKHSA ([1]; Chiralpak HSA column): 1.5 | CHI C18 pH 2.6 [2]: 100.1 | CHI C18 pH 7.4 [2]: 99.2 | CHI C18 pH 10.5 [2]: 101.6 | IC50 (U87MG glioblastoma cells): > 25 µM | melting point: 188 to 191 °C | CHI IAM [3]: 45.5 | Ki (human 5-HT6): 268 ± 63 nM | IC50 [4]: > 25 µM

O=S(=O)(NC1=Nc2ccccc2CN1)c1cccc2c(Cl)cccc12 [PR 43, 5-chloro-N-(3,4-dihydroquinazolin-2-yl)naphthalene-1-sulfonamide]
IC50 (U87MG glioblastoma cells): > 25 µM | melting point: 185 to 191 °C | Ki (human 5-HT6): 258 ± 46 nM | IC50 [4]: > 25 µM

O=S(=O)(NC1=Nc2ccccc2CN1)c1cccc2cc(Cl)ccc12 [PR 44, 6-chloro-N-(3,4-dihydroquinazolin-2-yl)naphthalene-1-sulfonamide]
%HSA ([1]; Chiralpak HSA column): 98.3% | logKHSA ([1]; Chiralpak HSA column): 1.6 | CHI C18 pH 2.6 [2]: 98.2 | CHI C18 pH 7.4 [2]: 96.5 | CHI C18 pH 10.5 [2]: 99.5 | IC50 (U87MG glioblastoma cells): > 25 µM | melting point: 210 to 212 °C | CHI IAM [3]: 44.3 | Ki (human 5-HT6): 282 ± 65 nM | IC50 [4]: > 25 µM

O=S(=O)(NC1=Nc2cccc(Cl)c2CN1)c1cccc2ccccc12 [PR 46, N -(5-chloro-3,4-dihydroquinazolin-2-yl)naphthalene-1-sulfonamide]
IC50 (U87MG glioblastoma cells): > 25 µM | Ki (human 5-HT6): 160 ± 36 nM | IC50 [4]: > 25 µM

O=S(=O)(NC1=Nc2ccc(Cl)cc2CN1)c1cccc2ccccc12 [PR 47, N -(6-chloro-3,4-dihydroquinazolin-2-yl)naphthalene-1-sulfonamide]
%HSA ([1]; Chiralpak HSA column): 97.8% | logKHSA ([1]; Chiralpak HSA column): 1.5 | CHI C18 pH 2.6 [2]: 96.5 | CHI C18 pH 7.4 [2]: 95.3 | CHI C18 pH 10.5 [2]: 98.1 | IC50 (U87MG glioblastoma cells): > 25 µM | melting point: 275 to 277 °C | CHI IAM [3]: 44.0 | Ki (human 5-HT6): 341 ± 76 nM | IC50 [4]: > 25 µM

O=S(=O)(NC1=Nc2c(Cl)cc(Cl)cc2CN1)c1cccc2ccccc12 [PR 51, N -(6,8-dichloro-3,4-dihydroquinazolin-2-yl)naphthalene-1-sulfonamide]
%HSA ([1]; Chiralpak HSA column): 99.0% | logKHSA ([1]; Chiralpak HSA column): 1.7 | CHI C18 pH 2.6 [2]: 108.2 | CHI C18 pH 7.4 [2]: 106.2 | CHI C18 pH 10.5 [2]: 110.1 | IC50 (U87MG glioblastoma cells): > 25 µM | melting point: 214 to 219 °C | CHI IAM [3]: 48.4 | Ki (human 5-HT6): 866 ± 199 nM | IC50 [4]: > 25 µM

CC1NC(NS(=O)(=O)c2cccc3ccccc23)=Nc2ccccc21 (stereo not drawn) [PR 67, N -(4-methyl-3,4-dihydroquinazolin-2-yl)naphthalene-1-sulfonamide]
IC50 (U87MG glioblastoma cells): > 25 µM | melting point: 169 to 174 °C | Ki (human 5-HT6): 236 ± 58 nM | IC50 [4]: > 25 µM

CC1NC(NS(=O)(=O)c2cccc3ccccc23)=Nc2cc(Cl)ccc21 (stereo not drawn) [PR 70, N -(7-chloro-4-methyl-3,4-dihydroquinazolin-2-yl)naphthalene-1-sulfonamide]
CHI C18 pH 2.6 [2]: 100.2 | CHI C18 pH 7.4 [2]: 99.7 | CHI C18 pH 10.5 [2]: 101.0 | melting point: 214 to 219 °C | CHI IAM [3]: 45.8 | Ki (human 5-HT6): 985 ± 245 nM

CC1NC(NS(=O)(=O)c2cccc3ccccc23)=Nc2c(Cl)cc(Cl)cc21 (stereo not drawn) [PR 72, N -(6,8-dichloro-4-methyl-3,4-dihydroquinazolin-2-yl)naphthalene-1-sulfonamide]
CHI C18 pH 2.6 [2]: 114.1 | CHI C18 pH 7.4 [2]: 111.3 | CHI C18 pH 10.5 [2]: 116.7 | melting point: 109 to 116 °C | CHI IAM [3]: 49.3 | Ki (human 5-HT6): 997 ± 249 nM

COc1ccc(C(CN(C)C)C2(O)CCCCC2)cc1 (stereo not drawn) [Venlafaxine, reference compound]
logKHSA ([1]; Chiralpak HSA column): -0.55 | CHI C18 pH 2.6 [2]: 53.5 | CHI C18 pH 7.4 [2]: 82.2 | CHI C18 pH 10.5 [2]: 92.9 | CHI IAM [3]: 29.9
